The nature of data set [1]: Plasma protein binding assay, filtration method. The following applies: lithium-heparin plasma, mouse plasma, 37° C., one hour, read-out: Plasma protein binding (%) (±standard deviation) (converted). Format: in vitro ADME. As for the experimental part:
Plasma Protein Binding Assay
Plasma protein binding was determined using the filtration method:
Preparation of standards: working solutions were prepared for each calibration level by appropriate dilution of the corresponding stock solution. Calibration standards were prepared by spiking 147 μl PBS buffer with 3 μl of the corresponding working solution. Sample preparation: The sample and standard solution preparation was performed by mixing equal volumes of acetonitrile containing the internal standard (1 μM) with 75 μl sample, or 150 μl calibration standard solution, respectively. After vigorously shaking the samples were centrifuged (6000 g) for 5 minutes. Aliquots of the supernatants were subjected to LC-MS/MS analysis. Assay procedure: Compound stock solutions were diluted in acetonitrile to give a 50-fold concentrated working solution. The incubation solutions were prepared by adding 3 μl of a 50-fold concentrated working solution in acetonitrile to 147 μl of lithium-heparin plasma from mice giving an incubation concentration of 1 μM. […] The percentage of compound bound to plasma proteins (% PPB) was calculated using the following equation: PPB[%]=100−(concentrationcompound plasma filtrate/mean concentrationcompound filtrated plasma filtrate)×100.
Applying this protocol, plasmaprotein binding of examples and reference compounds was determined as listed below in Table 5.

Another data set can be described thus: PAMPA permeability assay. Particulars: % of compound found in the receiver compartment after 16 hours; PBS pH 7.4, 5% DMSO, 23° C. Format: in vitro ADME. As for the experimental part:
Artificial membrane permeability was determined as follows: Tested compounds were dissolved to 10 mM in 100% DMSO. Permeability of compounds was measured in PBS (pH 7.4), 5% DMSO at 23° C. Safire (Tecan) plate reader was used for measurement the UV/Vis absorption. Protocol: Dilute stocks of tested compounds and controls with PBS to 1.67 mM and mix well by pipetting, add 280 μl of PBS, 5% DMSO to acceptor plate, add 5 μl of 2% L-α-Phosphatidylcholine suspension in dodecane to the membrane of donor plate. Immediately add 98 μl of PBS to donor plate and make the sandwich with acceptor plate. Add 42 μl of tested compounds and controls dilutions to […], cover the plate, place into camera and incubate for 16 hours. Make the equilibrium plate, add 225 μl of PBS, 3.7% DMSO and 25 μl of tested compounds and controls dilutions to UV plate. After 16 hours pull the donor plate out and transfer 250 μl from acceptor plate to UV plate. Scan UV plate on Safire (Tecan) plate reader from […]. Permeability is reported in % of compound found in the receiver compartment after the incubation period. Applying this protocol, PAMPA permeabilities of examples and reference compounds were determined as follows (see Table 4): […]
Background: In PAMPA a lipid-coated filter parts donor from acceptor wells.

`Cc1cc(OCc2c(-c3c(Cl)cccc3Cl)noc2C(C)C)cnc1Oc1ccc(C(=O)O)cc1` [Example 3, 4-(5-((3-(2,6-Dichlorophenyl)-5-isopropylisoxazol-4-yl)methoxy)-3-methylpyridin-2-yloxy)benzoic acid]: in data set [1], the fraction unbound at 1 h, 1 µM is 0.021.
With `CC(C)c1onc(-c2c(Cl)cccc2Cl)c1COc1ccc(Oc2ccc(C(=O)O)cc2)cc1` [Compound A, reference compound], the “PAMPA Permeability” value in the data set “PAMPA permeability assay” is given as 32%. Further, the fraction unbound at 1 h, 1 µM in data set [1] was 0.007.

The values above are taken from US8193192B2, “Heterocyclic FXR binding compounds” (Phenex Pharmaceuticals AG, priority 2006, dated 2012).
